Results as given in PubChem BioAssay (NCI).
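Following 48 hours of exposure in 96-well plates, responses at five concentrations were used to interpolate endpoints linearly. At the GI50, growth is halved. At the TGI there is no net growth.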

Key:
Assay in all cases: NCI-60 cell line screen, 48 h
SN12C renal = system: SN12C renal
MOLT-4 leukemia = system: MOLT-4 leukemia
SF-539 CNS = system: SF-539 CNS
SK-MEL-2 melanoma = system: SK-MEL-2 melanoma
HOP-92 NSCLC = system: HOP-92 NSCLC
MDA-MB-231 breast = system: MDA-MB-231 breast
CAKI-1 renal = system: CAKI-1 renal
UO-31 renal = system: UO-31 renal
SW-620 colon = system: SW-620 colon
HCC-2998 colon = system: HCC-2998 colon

| Compound | GI50 (SN12C renal) [µM] | TGI (SN12C renal) [µM] | GI50 (MOLT-4 leukemia) [µM] | TGI (MOLT-4 leukemia) [µM] | GI50 (SF-539 CNS) [µM] | TGI (SF-539 CNS) [µM] | GI50 (SK-MEL-2 melanoma) [µM] | TGI (SK-MEL-2 melanoma) [µM] | GI50 (HOP-92 NSCLC) [µM] | TGI (HOP-92 NSCLC) [µM] | GI50 (MDA-MB-231 breast) [µM] | TGI (MDA-MB-231 breast) [µM] | GI50 (CAKI-1 renal) [µM] | TGI (CAKI-1 renal) [µM] | GI50 (UO-31 renal) [µM] | TGI (UO-31 renal) [µM] | GI50 (SW-620 colon) [µM] | TGI (SW-620 colon) [µM] | GI50 (HCC-2998 colon) [µM] | TGI (HCC-2998 colon) [µM] |
| --- | --- | --- | --- | --- | --- | --- | --- | --- | --- | --- | --- | --- | --- | --- | --- | --- | --- | --- | --- | --- |
| COc1cc2c3c(n(CCCNCCN)c(=O)c2cc1OC)-c1cc2c(cc1C3=O)OCO2 | 0.351 | 4.35 | < 0.0445 | 0.081 | 0.39 | 2.22 | 2.63 | 8.67 | 2.31 | 15.6 | 0.343 | 2.48 | 0.836 | 5.87 | 5.26 | > 32.9 | 0.377 | 3.9 | – | – |
| O=S(=O)(NCC1CCC(CNc2ccc(Cl)cc2)CC1)c1ccc(-c2ccccc2)cc1 (stereo unspecified) | > 50 | > 50 | – | – | > 50 | > 50 | > 50 | > 50 | 45.6 | > 50 | 15.7 | > 50 | 25.6 | > 50 | > 50 | > 50 | > 50 | > 50 | – | – |
| COc1ccc(-c2cc(/C=C3\C(=O)Nc4ccc(Cl)cc43)[nH]n2)cc1 | 5.51 | 18.2 | 5.13 | 25.6 | 2.63 | 7.68 | – | – | – | – | 3.58 | 15.5 | 3.31 | 13.8 | 4.02 | 16.9 | 4.01 | 15.5 | 9.4 | 24.2 |
| NC1CCN(c2nc(Nc3cccc(C(F)(F)F)c3)c3c(=O)[nH]ccc3n2)CC1 | 1.37 | 2.8 | 1.05 | 4.8 | 1.77 | 3.26 | – | – | 1.44 | 3.04 | 2 | 3.6 | 0.444 | 1.88 | 1.19 | 2.62 | 1.19 | 2.67 | 1.6 | 3 |
| Cc1sc(C)c(Cc2c(C)sc(C)c2CCl)c1CCl | > 100 | > 100 | > 100 | > 100 | > 100 | > 100 | > 100 | > 100 | – | – | > 100 | > 100 | > 100 | > 100 | > 100 | > 100 | > 100 | > 100 | – | – |
| Nc1ccc2c(c1)NCCN2 | – | > 100 | – | 89.7 | – | > 100 | – | > 100 | – | > 100 | – | > 100 | – | > 100 | – | > 100 | – | – | – | > 100 |
| Nc1nnc2cc(Cl)ccc2n1 | 16 | > 100 | > 100 | > 100 | > 100 | > 100 | – | – | 3.56 | 47.6 | > 100 | > 100 | > 100 | > 100 | 30.2 | > 100 | > 100 | > 100 | > 100 | > 100 |
